Measurements taken from patent publication US11130769B2 (Prelude Therapeutics Incorporated, priority 2018, dated 2021).
Read-outs that look alike come from different tables or passages of the source.

Legend:
MCL-1 = MCL-1 (Homo sapiens (Human), UniProt Q07820); assay: Cell free Mcl-1:Bim affinity assay (fluorescence polarization competition); assay type: binding; conditions: 15 nM MCL-1, 5 nM FITC-Bim, 1 hour at room temperature, read-out: BIM_Ki
Outline: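 Fluorescence polarization competition: 10-point 3-fold compound dilutions displaced 5 nM FITC-Bim from 15 nM MCL-1 over 1 h at room temperature. Ki was derived from the fitted IC50 using the Nikolovska-Coleska equation, with percent inhibition normalized to DMSO and positive controls.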

H929 cells = assay: Cell viability assay (H929 10 FBS); assay type: cell-based; conditions: Homo sapiens, NCI-H929, 24 hours, read-out: H929_10FBS IC50
Outline: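 ATP-based luminescence (CellTiter-Glo or ATPlite 1 Step, 30-60 min at RT) gauged viability of H929 myeloma cells after 24 h compound treatment at 37 °C. Cells plated at 4000 per well in 10% FBS RPMI 1640 supplemented with pyruvate, HEPES and glucose.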

Sequence of MCL-1 (Q07820 whole entry): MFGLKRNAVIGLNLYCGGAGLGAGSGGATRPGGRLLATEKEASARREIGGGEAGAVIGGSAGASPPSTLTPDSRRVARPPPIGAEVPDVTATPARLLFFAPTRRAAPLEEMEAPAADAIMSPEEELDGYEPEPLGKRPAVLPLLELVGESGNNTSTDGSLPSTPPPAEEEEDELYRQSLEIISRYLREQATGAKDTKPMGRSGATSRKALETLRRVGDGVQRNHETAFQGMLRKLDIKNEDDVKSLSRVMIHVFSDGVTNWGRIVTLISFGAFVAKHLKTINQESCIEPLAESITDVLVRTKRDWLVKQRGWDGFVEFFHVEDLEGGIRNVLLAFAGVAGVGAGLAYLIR

| Structure (SMILES) | Ki (MCL-1; class symbols) [nM] | IC50 (H929 cells) [nM] | Ki (MCL-1; numeric values) [nM] |
| --- | --- | --- | --- |
| CN1C/C=C/[C@H](OCCN2CC[C@@H](F)C2)[C@@H]2CC[C@H]2CN2C[C@@]3(CCCc4cc(Cl)ccc43)COc3ccc(cc32)S(=O)(=O)NC(=O)C1(C)C [Example 276, (3R,6R,7S,8E,22S)-6′-Chloro-7-[2-[(3R)-3-fluoropyrrolidin-1-yl]ethoxy]-11,12,12-trimethyl-15,15-dioxo-spiro[20-oxa-15-thia-1,11,14-triazatetracyclo[14.7.2.03,6.019,24]pentacosa-8,16,18,24-tetraene-22,1′-tetralin]-13-one] | < 1 | < 1000 | – |
| [2H]C([2H])([2H])N(C(=O)O[C@H]1/C=C/COC(C)(C)C(=O)NS(=O)(=O)c2ccc3c(c2)N(C[C@@H]2CC[C@H]21)C[C@@]1(CCCc2cc(Cl)ccc21)CO3)C([2H])([2H])[2H] [Example 47, [(3R,6R,7S,8E,22S)-6′-Chloro-12,12-dimethyl-13,15,15-trioxo-spiro[11,20-dioxa-thia-1,14-diazatetracyclo[14.7.2.03,6.019,24]pentacosa-8,16,18,24-tetraene-22,1′-tetralin]-7-yl] N,N-bis(trideuteriomethyl)carbamate] | < 1 | < 500 | – |
| COCCN1CCCN(C(=O)O[C@H]2/C=C/COC(C)(C)C(=O)NS(=O)(=O)c3ccc4c(c3)N(C[C@@H]3CC[C@H]32)C[C@@]2(CCCc3cc(Cl)ccc32)CO4)CC1 [Example 60, [(3R,6R,7S,8E,22S)-6′-Chloro-12,12-dimethyl-13,15,15-trioxo-spiro[11,20-dioxa-15-thia-1,14-diazatetracyclo[14.7.2.03,6.019,24]pentacosa-8,16,18,24-tetraene-22,1′-tetralin]-7-yl] 4-(2-methoxyethyl)-1,4-diazepane-1-carboxylate] | < 1 | < 500 | – |
| CON(C)C(=O)O[C@H]1/C=C/COC(C)(C)C(=O)NS(=O)(=O)c2ccc3c(c2)N(C[C@@H]2CC[C@H]21)C[C@@]1(CCOc2cc(Cl)ccc21)CO3 [Example 306, [(3R,6R,7S,8E,22S)-7′-Chloro-12,12-dimethyl-13,15,15-trioxo-spiro[11,20-dioxa-15-thia-1,14-diazatetracyclo[14.7.2.03,6.019,24]pentacosa-8,16,18,24-tetraene-22,4′-chromane]-7-yl] N-methoxy-N-methyl-carbamate] | < 1 | < 500 | – |
| CONC(=O)O[C@H]1/C=C/COC(C)(C)C(=O)NS(=O)(=O)c2ccc3c(c2)N(C[C@@H]2CC[C@H]21)C[C@@]1(CCCc2cc(Cl)ccc21)CO3 [Example 167, [(3R,6R,7S,8E,22S)-6′-Chloro-12,12-dimethyl-13,15,15-trioxo-spiro[11,20-dioxa-15-thia-1,14-diazatetracyclo[14.7.2.03,6.019,24]pentacosa-8,16,18,24-tetraene-22,1′-tetralin]-7-yl] N-methoxycarbamate] | < 1 | < 500 | – |
| O=C1NS(=O)(=O)c2ccc3c(c2)N(C[C@@H]2CC[C@H]2[C@@H](O)/C=C/COC12CC2)C[C@@]1(CCCc2cc(Cl)ccc21)CO3 [Example 40, (3R,6R,7S,8E,22S)-6′-Chloro-7-hydroxy-12,12-ethylene-15,15-dioxo-spiro[11,20-dioxa-15-thia-1,14-diazatetracyclo[14.7.2.03,6.019,24]pentacosa[8,16(25),17,19(24)]tetraene-22,1′-tetralin]-13-one] | < 1 | < 500 | – |
| CN(C(=O)O[C@H]1/C=C/COC2(CCC2)C(=O)NS(=O)(=O)c2ccc3c(c2)N(C[C@@H]2CC[C@H]21)C[C@@]1(CCCc2cc(Cl)ccc21)CO3)[C@@H]1CCOC1 [Example 234, [(3R,6R,7S,8E,22S)-6′-Chloro-12,12-(1,3-propylene)-13,15,15-trioxo-spiro[11,20-dioxa-15-thia-1,14-diazatetracyclo[14.7.2.03,6.019,24]pentacosa-8,16,18,24-tetraene-22,1′-tetralin]-7-yl] N-methyl-N-[(3R)-tetrahydrofuran-3-yl]carbamate] | < 1 | < 500 | – |
| CN(C)CCNC(=O)O[C@H]1/C=C/COC(C)(C)C(=O)NS(=O)(=O)c2ccc3c(c2)N(C[C@@H]2CC[C@H]21)C[C@@]1(CCCc2cc(Cl)ccc21)CO3 [Example 155, [(3R,6R,7S,8E,22S)-6′-Chloro-12,12-dimethyl-13,15,15-trioxo-spiro[11,20-dioxa-15-thia-1,14-diazatetracyclo[14.7.2.03,6.019,24]pentacosa-8,16,18,24-tetraene-22,1′-tetralin]-7-yl] N-[2-(dimethylamino)ethyl]carbamate] | < 1 | < 500 | – |
| CC(=O)NS(=O)(=O)c1ccc2c(c1)N(Cc1ccccc1)CC1(CCCc3cc(Cl)ccc31)CO2 (stereo not shown) [Example 4, N-(5-Benzyl-6′-chloro-spiro[2,4-dihydro-1,5-benzoxazepine-3,1′-tetralin]-7-yl)sulfonylacetamide] | – | > 1000 | 207 |
| CCN1C/C=C/[C@H](OC(=O)N(C)C)[C@@H]2CC[C@H]2CN2C[C@@]3(CCCc4cc(Cl)ccc43)COc3ccc(cc32)S(=O)(=O)NC(=O)C1(C)C [Example 210, [(3R,6R,7S,8E,22S)-6′-Chloro-11-ethyl-12,12-dimethyl-13,15,15-trioxo-spiro[20-oxa-15-thia-1,11,14-triazatetracyclo[14.7.2.03,6.019,24]pentacosa-8,16,18,24-tetraene-22,1′-tetralin]-7-yl] N,N-dimethylcarbamate] | < 1 | < 500 | – |
| CNC1CN(C(=O)O[C@H]2/C=C/COC(C)(C)C(=O)NS(=O)(=O)c3ccc4c(c3)N(C[C@@H]3CC[C@H]32)C[C@@]2(CCCc3cc(Cl)ccc32)CO4)C1 [Example 156, [(3R,6R,7S,8E,22S)-6′-Chloro-12,12-dimethyl-13,15,15-trioxo-spiro[11,20-dioxa-15-thia-1,14-diazatetracyclo[14.7.2.03,6.019,24]pentacosa-8,16,18,24-tetraene-22,1′-tetralin]-7-yl] 3-(methylamino)azetidine-1-carboxylate] | < 1 | < 500 | – |
| CO[C@@H]1/C=C/CN(C)C2(CCC2)C(=O)NS(=O)(=O)c2ccc3c(c2)N(C[C@@H]2CC[C@H]21)C[C@@]1(CCCc2cc(Cl)ccc21)CO3 [Example 120, (3R,6R,7R,8E,22S)-6′-Chloro-7-methoxy-11-methyl-12,12-(1,3-propylene)-15,15-dioxo-spiro[20-oxa-15-thia-1,11,14-triazatetracyclo[14.7.2.03,6.019,24]pentacosa[8,16(25),17,19(24)]tetraene-22,1′-tetralin]-13-one] | 1 to 100 | < 1000 | – |
| CO[C@@H]1/C=C/CNCC(C)(C)C(=O)NS(=O)(=O)c2ccc3c(c2)N(C[C@@H]2CC[C@H]21)C[C@@]1(CCCc2cc(Cl)ccc21)CO3 [Example 68, (3R,6R,7R,8E,23S)-6′-Chloro-7-methoxy-13,13-dimethyl-16,16-dioxo-spiro[21-oxa-16-thia-1,11,15-triazatetracyclo[15.7.2.03,6.020,25]hexacosa[8,17(26),18,20(25)]tetraene-23,1′-tetralin]-14-one] | 1 to 100 | > 1000 | – |
| CN(C(=O)O[C@H]1/C=C/COC(C)(C)C(=O)NS(=O)(=O)c2ccc3c(c2)N(C[C@@H]2CC[C@H]21)C[C@@]1(CCOc2cc(Cl)ccc21)CO3)[C@@H]1CCOC1 [Example 301, [(3R,6R,7S,8E,22S)-7′-Chloro-12,12-dimethyl-13,15,15-trioxo-spiro[11,20-dioxa-15-thia-1,14-diazatetracyclo[14.7.2.03,6.019,24]pentacosa-8,16,18,24-tetraene-22,4′-chromane]-7-yl] N-methyl-N-[(3R)-tetrahydrofuran-3-yl]carbamate] | < 1 | < 500 | – |
| CN(C(=O)O[C@H]1/C=C/COC(C)(C)C(=O)NS(=O)(=O)c2ccc3c(c2)N(C[C@@H]2CC[C@H]21)C[C@@]1(CCCc2cc(Cl)ccc21)CO3)[C@@H]1CCOC1 [Example 64, [(3R,6R,7S,8E,22S)-6′-Chloro-12,12-dimethyl-13,15,15-trioxo-spiro[11,20-dioxa-15-thia-1,14-diazatetracyclo[14.7.2.03,6.019,24]pentacosa-8,16,18,24-tetraene-22,1′-tetralin]-7-yl] N-methyl-N-[(3R)-tetrahydrofuran-3-yl]carbamate] | < 1 | < 500 | – |
| CN1C/C=C/[C@H](OC(=O)N2CCN3CCOCC3C2)[C@@H]2CC[C@H]2CN2C[C@@]3(CCCc4cc(Cl)ccc43)COc3ccc(cc32)S(=O)(=O)NC(=O)C1(C)C (stereo in doubt) [Example 208, [(3R,6R,7S,8E,22S)-6′-Chloro-11,12,12-trimethyl-13,15,15-trioxo-spiro[20-oxa-15-thia-1,11,14-triazatetracyclo[14.7.2.03,6.019,24]pentacosa-8,16,18,24-tetraene-22,1′-tetralin]-7-yl] (9aS)-3,4,6,7,9,9a-hexahydro-1H-pyrazino[2,1-c][1,4]oxazine-8-carboxylate] | 1 to 100 | < 500 | – |
| CO[C@H]1/C=C/COCC(=O)NS(=O)(=O)c2ccc3c(c2)N(C[C@@H]2CC[C@H]21)C[C@@]1(CCCc2cc(Cl)ccc21)CO3 [Example 111, (3R,6R,7S,8E,22S)-6′-Chloro-7-methoxy-15,15-dioxo-spiro[[11,20]dioxa[15]thia-1,14-diazatetracyclo[14.7.2.03,6.019,24]pentacosa[8,16(25),17,19(24)]tetraene-22,1′-tetralin]-13-one] | 1 to 100 | > 1000 | – |
